Test results published in US11548855B2, “Pyrazole amide compound and application thereof, and fungicide” (Shandong United Pesticide Industry Co. Ltd., priority 2017, dated 2023).

Legend:
[1] = test system: corn rust (Puccinia sorghi); assay: Greenhouse pot test, corn rust; type: in vivo
Procedure: (§1) Test method: each of the test compounds in Table 1 was dispensed to 5 wt % emulsifiable concentrate (hereinafter referred to as 5% EC). The greenhouse pot test was used in each experiment, and the effective concentrations of each compound were illustrated in Table 1.
Corn rust: two-three leaf stage potted corn seedling with uniform growth was selected and made foliar spray treatment with 5% EC, the blank control sprayed with clean water was additionally arranged, three replicates were carried out. After 24 h, the leaves of the host plants were inoculated with sporangial suspensions of the fungi corn rust (Puccinia sorghi), the plants were stored in humidity chamber (temperature: lighting 25° C., dark 20° C., relative humidity 95-100%) and then transferred to greenhouse (25±1° C.) 24 h after infection. After 7 days, the screening results were investigated according to the disease incidence condition of blank control.
(§2) The investigation method: “Guidelines for the field efficacy trials of pesticides” was adopted as the grading standard, and the control effect in a unit of % was calculated based on the disease index. Disease index=Σ(number of diseased leaves at each grade×relative grade value)×100/(total number of leaves×9); Control effect (%)=(disease index of control−disease index of treated)×100/disease index of control;
(§3) The compounds provided by the present disclosure and some control compounds were tested by the same methods in the Test example 1, except that the effective concentrations of the compounds in this Test example are shown in Table 2.

[2] = test system: wheat powdery mildew (Erysiphe graminis); assay: Greenhouse pot test, wheat powdery mildew; type: in vivo
From the text: as §1
Wheat powdery mildew: two-leaf stage potted wheat seedling with uniform growth was selected and made foliar spray treatment with 5% EC, the blank control sprayed with clean water was additionally arranged, three replicates were carried out. After 24 h, the leaves of the host plants were inoculated by shake-down method with sporangial suspensions of the fungi wheat powdery mildew (Erysiphe graminis), the plants were stored in a greenhouse (25±1° C.). After 7 days, the screening results were investigated according to the disease incidence condition of blank control.
as §2, §3

[3] = test system: cucumber powdery mildew; assay: Greenhouse pot test, cucumber powdery mildew; type: in vivo; conditions: greenhouse pot
Procedure: as §1
Cucumber powdery mildew: cucumber seedling in a true leaf period with uniform growth was selected, and dried in the shade for 24 h after spray treatment. Fresh cucumber powdery mildew spores on the cucumber leaves were collected and washed, and filtered through a double gauze to prepare a spores suspension with concentration of about 100,000/mL, then spray inoculation was applied. The test materials inoculated were moved into a greenhouse (lighting 21-23° C.), after 8 days, the grading investigation was carried out according to the disease incidence condition of blank control, and the control effect in a unit of % was calculated according to disease index.
as §2, §3

[4] = test system: rice sheath blight fungi (Rhizoctonia solami); assay: Greenhouse pot test, rice sheath blight; type: in vivo
Procedure: as §3
In addition, the test method for rice sheath blight as following steps:
The potted rice seedling with uniform growth was selected, and dried in the shade for 24 h after spray treatment, then inoculated 3 blocks of 0.25 cm^2 rice sheath blight fungi (Rhizoctonia solami) at the base of seedling by clamp inoculation bacterium block method. The test materials inoculated were moved into greenhouse (temperature: lighting 28° C., dark 25° C., relative humidity 95%), after 7 days, investigate 5 leaves of per block treatment, the grading investigation was carried out according to the disease incidence condition of sheaths and leaves of rice, “Guidelines for the field efficacy trials of pesticides” was adopted as the grading standard, the disease index was calculated according to the grading standard, and the control effect in a unit of % was calculated according to disease index.

[5] = test system: wheat powdery mildew; assay: Field trial, wheat powdery mildew; type: in vivo, Erysiphe graminis; conditions: 100 mg/L, sprayed once
Procedure: II. The Wheat Powdery Mildew Test Method:
(§4) Spray method: Stein and leaf spraying (Applicator: Xinkangda lithium battery electric sprayer).
Test crops: wheat (cultivars: Liaochun 10)
(§5) The test was carried out in Shenyang, the test field was loam with rich organic matters and normal management of fertilizer and water, and no other pesticide was applied during the test.
(§6) The arrangement of the test plot was random block permutation; the area of the test plot: 15 m^2; repeat times: 3 times; spray time and frequency: Sep. 17, 2018, once. Spray dosage: each treatment was repeated 3 times, the total water consumption was 8 L. No other pesticide was applied during the test.
The incidence of disease spots in each plot was investigated by diagonal selecting 4 samples/plot and 20 plants/samples, and the first leaf below the flag leaf of each plant was investigated.
(§7) The grading standard of crop disease was as follows:
(§8) Grade 0: no leaf-spot area;
(§9) Grade 1: the ratio of leaf-spot area to leaf area is less than 5%;
(§10) Grade 3: the ratio of leaf-spot area to leaf area is between 6-25%;
(§11) Grade 5: the ratio of leaf-spot area to leaf area is between 26-50%;
(§12) Grade 7: the ratio of leaf-spot area to leaf area is between 51-75%;
(§13) Grade 9: the ratio of leaf-spot area to leaf area is between 76-100%;
(§14) According to the relevant content of the “Guidelines for the field efficacy trials of pesticides of the People's Republic of China (PRC)”, the disease index was calculated according to the grading standard, and the control effect in a unit of % was calculated based on the disease index, and the test data of significance analysis was performed by using DPS evaluation system (DMRT).

[6] = test system: soybean rust; assay: Field trial, soybean rust; type: in vivo, Phakopsora pacchyrhizi Sydow; conditions: sprayed 2 times
Procedure: III. The Soybean Rust Test Method:
as §4
Test crops: soybean (cultivars: Glycine max(L) Merr)
as §5
as §6, with “25” for “15”, “2 times on Aug. 11, 2018 and Aug. 21, 2018 respectively.” for “Sep. 17, 2018, once.”, “test. […] 15-20 days after the second spray treatment, the control effect was investigated.” for “test.”
The incidence of disease spots in each plot was investigated by diagonal selecting 5 samples/plot and 20 plants/samples, 10 leaves/plant was surveyed.
as §7, §8, §9, §10, §11, §12, §13, §14

[7] = test system: soybean rust (Phakopsora pacchyrhizi Sydow); assay: Greenhouse pot test, soybean rust; type: in vivo
Procedure: as §1
Soybean rust: two-leaf stage potted soybean seedling with uniform growth was selected and made foliar spray treatment with 5% EC, the blank control sprayed with clean water was additionally arranged, three replicates were carried out. After 24 h, the leaves of the host plants were inoculated with sporangial suspensions of the fungi soybean rust (Phakopsora pacchyrhizi Sydow), the plants were stored in humidity chamber (temperature 20-25° C., relative humidity>95%) and then transferred to greenhouse (25±1° C.) 8-16 h after infection. After 7 days, the screening results were investigated according to the disease incidence condition of blank control.
as §2, §3

Compound: Cn1cc(C(=O)Nc2cccc3c2[C@@H]2CC[C@H]3C2=C(Cl)Cl)c(C(F)F)n1 (racemic) [Benzovindiflupyr]
- Control effect (%) Corn rust ([1]; 1.5625 mg/L): 95%
- Control effect (%) Corn rust ([1]; 3.1250 mg/L): 98%
- Control effect (%) Wheat powdery mildew ([2]; 1.5625 mg/L): 50%
- Control effect (%) Wheat powdery mildew ([2]; 3.1250 mg/L): 70%
- Control effect (%) Cucumber powdery mildew ([3]; 1.5625 mg/L): 20%
- Control effect (%) Cucumber powdery mildew ([3]; 6.25 mg/L): 80%
- Control effect (%) Cucumber powdery mildew ([3]; 25 mg/L): 100%
- Control effect (%) Cucumber powdery mildew ([3]; 100 mg/L): 100%
- Control effect (%) Rice sheath blight ([4]; 0.5 mg/L): 30%
- Control effect (%) Rice sheath blight ([4]; 1 mg/L): 40%
- Control effect (%) Rice sheath blight ([4]; 1.5625 mg/L): 55%
- Control effect (%) Rice sheath blight ([4]; 3.1250 mg/L): 65%
- Control effect (%) Wheat powdery mildew [5]: 95%
- Control effect (%) ([6]; dosage 50 mg/L): 91.46%
- Control effect (%) ([6]; dosage 75 mg/L): 94.51%
- Control effect (%) ([6]; dosage 100 mg/L): 97.15%
- Control effect (%) Soybean rust ([7]; 0.5 mg/L): 95%
- Control effect (%) Soybean rust ([7]; 1 mg/L): 98%
- Control effect (%) Soybean rust ([7]; 1.5625 mg/L): 100%
- Control effect (%) Soybean rust ([7]; 3.1250 mg/L): 100%

Compound: Fc1ccc([C@]2(Cn3cncn3)O[C@H]2c2ccccc2Cl)cc1 (racemic) [Epoxiconazole]
- Control effect (%) Rice sheath blight ([4]; 0.625 mg/L): 30%
- Control effect (%) Rice sheath blight ([4]; 2.5 mg/L): 70%
- Control effect (%) Rice sheath blight ([4]; 10 mg/L): 100%

Compound: CO/C=C(/C(=O)OC)c1ccccc1Oc1cc(Oc2ccccc2C#N)ncn1 [Azoxystrobin]
- Control effect (%) Cucumber powdery mildew ([3]; 100 mg/L): 0%
- Control effect (%) Cucumber powdery mildew ([3]; 400 mg/L): 30%
- Control effect (%) ([6]; dosage 50 mg/L): 84.62%
